Values of other authors, collected in patent publication US9764130B2, “Transdermal systems for the delivery of therapeutic agents including granisetron using iontophoresis” (Teva Pharmaceuticals International GmbH, priority 2005, dated 2017).

Details: transdermal iontophoresis from anode pad; hairless rat animal model; AAPS 2003/2004 abstracts

CN1C2CCCC1CC(NC(=O)c1nn(C)c3ccccc13)C2 (stereo not shown) [granisetron]
time within which a therapeutic dosage is achieved with iontophoresis: two
